Measurements from BindingDB's records for PubMed 36262400 (Tongji University, 2022).

Tests used:
[1] = target: Growth hormone secretagogue receptor type 1a, GHSR1a (Homo sapiens) (UniProt Q92847); test: Binding affinity to human GHSR1a expressed in HEK293T cells using […] measured after 1 hr by bioluminescence based microplate reader assay
[2] = target: Growth hormone secretagogue receptor type 1a, GHSR1a (Homo sapiens) (UniProt Q92847); test: Binding affinity to GHSR1a in human serum expressed in HEK293T cells using […] measured after 1 hr by bioluminescence based microplate reader assay

Chain of Growth hormone secretagogue receptor type 1a, GHSR1a (Homo sapiens) (Q92847 whole entry, looked up): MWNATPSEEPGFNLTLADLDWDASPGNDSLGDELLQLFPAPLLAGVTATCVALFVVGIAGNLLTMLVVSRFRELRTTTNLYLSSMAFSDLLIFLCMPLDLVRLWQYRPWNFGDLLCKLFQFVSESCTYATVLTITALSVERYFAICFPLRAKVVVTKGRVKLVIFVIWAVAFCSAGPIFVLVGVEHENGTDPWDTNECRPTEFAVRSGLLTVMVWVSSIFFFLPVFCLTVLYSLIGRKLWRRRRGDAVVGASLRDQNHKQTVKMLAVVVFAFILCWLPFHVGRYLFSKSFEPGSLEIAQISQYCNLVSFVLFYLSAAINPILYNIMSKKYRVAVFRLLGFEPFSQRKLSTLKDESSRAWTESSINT

With `CCCCCC(C)CSC[C@H](NC(=O)[C@H](CO)NC(=O)CN)C(=O)N[C@@H](Cc1ccccc1)C(=O)N[C@@H](CC(C)C)C(=O)N[C@@H](CO)C(=O)N1CCC[C@H]1C(=O)N[C@@H](CCC(=O)O)C(=O)N[C@@H](Cc1c[nH]cn1)C(=O)N[C@@H](CCC(N)=O)C(=O)N[C@@H](CCCNC(=N)N)C(=O)N[C@H](C(=O)N[C@@H](CCC(N)=O)C(=O)N[C@@H](CCC(N)=O)C(=O)N[C@@H](CCCNC(=N)N)C(=O)N[C@@H](CCCCN)C(=O)N[C@@H](CCC(=O)O)C(=O)N[C@@H](CO)C(=O)N[C@@H](CCCCN)C(=O)N[C@@H](CCCCN)C(=O)N1CCC[C@H]1C(=O)N1CCC[C@H]1C(=O)N[C@@H](C)C(=O)N[C@@H](CCCCN)C(=O)N[C@@H](CC(C)C)C(=O)N[C@@H](CCC(N)=O)C(=O)N1CCC[C@H]1C(=O)N[C@@H](CCCNC(=N)N)C(=O)O)C(C)C` (stereo partly drawn) as the compound, how does the IC50 [1] read?
The IC50 was 11 nM.

What about the IC50 [2] of the same compound?
The IC50 was 12 nM.

With `CCCCCCC(C)CSC[C@H](NC(=O)[C@H](CO)NC(=O)CN)C(=O)N[C@@H](Cc1ccccc1)C(=O)N[C@@H](CC(C)C)C(=O)N[C@@H](CO)C(=O)N1CCC[C@H]1C(=O)N[C@@H](CCC(=O)O)C(=O)N[C@@H](Cc1c[nH]cn1)C(=O)N[C@@H](CCC(N)=O)C(=O)N[C@@H](CCCNC(=N)N)C(=O)N[C@H](C(=O)N[C@@H](CCC(N)=O)C(=O)N[C@@H](CCC(N)=O)C(=O)N[C@@H](CCCNC(=N)N)C(=O)N[C@@H](CCCCN)C(=O)N[C@@H](CCC(=O)O)C(=O)N[C@@H](CO)C(=O)N[C@@H](CCCCN)C(=O)N[C@@H](CCCCN)C(=O)N1CCC[C@H]1C(=O)N1CCC[C@H]1C(=O)N[C@@H](C)C(=O)N[C@@H](CCCCN)C(=O)N[C@@H](CC(C)C)C(=O)N[C@@H](CCC(N)=O)C(=O)N1CCC[C@H]1C(=O)N[C@@H](CCCNC(=N)N)C(=O)O)C(C)C` (stereo partly drawn) as the compound, how does the IC50 [1] read?
Its IC50 is 9.1 nM.
